Measured values published in article PMC10999543, “Identification of kinase modulators as host-directed therapeutics against intracellular methicillin-resistant Staphylococcus aureus” (Frontiers in Cellular and Infection Microbiology, 2024).
Like-named read-outs stand apart in the source and are kept apart here.

How the values were obtained:
HeLa cells = test: Compound screen by flow cytometry: HeLa cell count as surrogate readout of cell viability (z-scoreHeLa); format: cell-based, human; conditions: for cell count rep 1 / z-scoreHeLa rep 1: replicate 1; for cell count rep 2 / z-scoreHeLa rep 2: replicate 2; for cell count rep 3 / z-scoreHeLa rep 3: replicate 3; for z-scoreHeLa mean: mean of 3 replicates
How it was run: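 The viability surrogate was the count of fixed HeLa cells by flow cytometry, converted to z-scores against DMSO controls with values deviating two-fold excluded. Before counting, cells had been infected with MRSA for 1 h and cleared of extracellular bacteria with gentamicin. They were then exposed overnight to kinase inhibitors in triplicate.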

intracellular MRSA = format: cell-based, Staphylococcus aureus; conditions: for %GFP+ rep 1 / z-scoreMRSA+ rep 1: replicate 1; for %GFP+ rep 2 / z-scoreMRSA+ rep 2: replicate 2; for %GFP+ rep 3 / z-scoreMRSA+ rep 3: replicate 3; for z-scoreMRSA+ mean: mean of 3 replicates
How it was run: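 HeLa cells were infected with GFP-expressing MRSA (mean MOI 6.8) for 1 h, treated with 30 µg/ml gentamicin for 15 min, then incubated overnight at 37°C with kinase inhibitors and 5 µg/ml gentamicin. Flow cytometry gave % GFP-positive cells, with cell count as viability. Hits were z-score ≤ -2 (infection) and ≥ -3 (count) versus DMSO.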

[1] = PKIS compound screen raw data, HeLa cell count
[2] = PKIS compound screen, HeLa cell count
[3] = PKIS compound screen, Yes/No call
[4] = PKIS compound screen, Yes/No call on z-scoreHeLa
[5] = PKIS compounds raw data, HeLa cell count
[6] = PKIS compound screen raw data, MRSA-infected HeLa cells
[7] = PKIS compound screen, MRSA-infected HeLa cells
[8] = PKIS compound screen, Yes/No call (effect without cell death)
[9] = PKIS compound screen, Yes/No call on z-scoreMRSA+
[10] = PKIS compounds raw data, MRSA-infected HeLa cells
[11] = compound screen, HeLa cell count
[12] = Yes/No: effect without cell death
[13] = compound screen, MRSA-infected HeLa cells

## Cc1nn2c(=O)cc(N3CCOCC3)nc2n1Cc1cccc(Cl)c1Cl [GSK2342769A]
HeLa cells; [1]
  cell count rep 1: 31673
  cell count rep 2: 24146
  cell count rep 3: 21902
HeLa cells; [2]
  z-scoreHeLa mean: 0.21
  z-scoreHeLa rep 1: 0.25
  z-scoreHeLa rep 2: -0.19
  z-scoreHeLa rep 3: 0.58
HeLa cells; [3]
  cell death: No
HeLa cells; [4]
  cell death: No
HeLa cells; PKIS compound screen
  z-scoreHeLa mean: -1.49
  z-scoreHeLa rep 1: -1.68
  z-scoreHeLa rep 2: -1.59
  z-scoreHeLa rep 3: -1.19
HeLa cells; [5]
  cell count rep 1: 3246
  cell count rep 2: 3614
  cell count rep 3: 3721
Intracellular MRSA; [6]
  %GFP+ rep 1: 10.7%
  %GFP+ rep 2: 10.7%
  %GFP+ rep 3: 15.0%
Intracellular MRSA; [7]
  z-scoreMRSA+ mean: -2.08
  z-scoreMRSA+ rep 1: -2.16
  z-scoreMRSA+ rep 2: -2.38
  z-scoreMRSA+ rep 3: -1.70
Intracellular MRSA; [3]
  effect: No
Intracellular MRSA; [8]
  hit: No and Yes
Intracellular MRSA; [9]
  effect: Yes
Intracellular MRSA; PKIS compound screen
  z-scoreMRSA+ mean: -0.59
  z-scoreMRSA+ rep 1: -0.67
  z-scoreMRSA+ rep 2: -0.54
  z-scoreMRSA+ rep 3: -0.55
Intracellular MRSA; [10]
  %GFP+ rep 1: 23.6%
  %GFP+ rep 2: 23.2%
  %GFP+ rep 3: 24.3%

## O=c1cc(N2CCOCC2)nc2n(Cc3cccc(Cl)c3Cl)c(C3CC3)nn12 [GSK2358994A]
HeLa cells; [1]
  cell count rep 1: 42747
  cell count rep 2: 35107
  cell count rep 3: 37884
HeLa cells; [2]
  z-scoreHeLa mean: 2.50
  z-scoreHeLa rep 1: 2.13
  z-scoreHeLa rep 2: 1.69
  z-scoreHeLa rep 3: 3.69
HeLa cells; [4]
  cell death: No
Intracellular MRSA; [6]
  %GFP+ rep 1: 12.1%
  %GFP+ rep 2: 13.2%
  %GFP+ rep 3: 14.9%
Intracellular MRSA; [7]
  z-scoreMRSA+ mean: -1.74
  z-scoreMRSA+ rep 1: -1.78
  z-scoreMRSA+ rep 2: -1.70
  z-scoreMRSA+ rep 3: -1.73
Intracellular MRSA; [8]
  hit: No
Intracellular MRSA; [9]
  effect: No

## CNc1nc(-c2ccc3c(N)n[nH]c3c2)cc(N2C[C@@H](C(=O)NC3CCCCC3)OC[C@H]2C)n1 [GSK2375584A]
HeLa cells; [1]
  cell count rep 1: 30717
  cell count rep 2: 29074
  cell count rep 3: 21029
HeLa cells; Yes/No call from z-scoreHeLa
  cell death: No
HeLa cells; [11]
  z-scoreHeLa mean: 0.38
  z-scoreHeLa rep 1: 0.09
  z-scoreHeLa rep 2: 0.65
  z-scoreHeLa rep 3: 0.41
Intracellular MRSA; [6]
  %GFP+ rep 1: 21.4%
  %GFP+ rep 2: 23.1%
  %GFP+ rep 3: 26.2%
Intracellular MRSA; Yes/No call from z-scoreMRSA+
  effect: No
Intracellular MRSA; [12]
  hit: No
Intracellular MRSA; [13]
  z-scoreMRSA+ mean: 1.02
  z-scoreMRSA+ rep 1: 0.70
  z-scoreMRSA+ rep 2: 1.01
  z-scoreMRSA+ rep 3: 1.36

## Nc1nccc2scc(-c3ccc4c(c3)CCN4C(=O)Cc3ccccc3)c12 [GSK2576924A]
HeLa cells; [1]
  cell count rep 1: 3006
  cell count rep 2: 3066
  cell count rep 3: 3447
HeLa cells; Yes/No call from z-scoreHeLa
  cell death: No
HeLa cells; [11]
  z-scoreHeLa mean: -1.02
  z-scoreHeLa rep 1: -0.97
  z-scoreHeLa rep 2: -0.95
  z-scoreHeLa rep 3: -1.13
Intracellular MRSA; [6]
  %GFP+ rep 1: 25.5%
  %GFP+ rep 2: 24.3%
  %GFP+ rep 3: 22.9%
Intracellular MRSA; Yes/No call from z-scoreMRSA+
  effect: No
Intracellular MRSA; [12]
  hit: No
Intracellular MRSA; [13]
  z-scoreMRSA+ mean: 0.22
  z-scoreMRSA+ rep 1: 0.05
  z-scoreMRSA+ rep 2: 0.41
  z-scoreMRSA+ rep 3: 0.21

## Nc1ncc(-c2ccncc2)c2scc(-c3ccc4c(c3)CCN4C(=O)Cc3ccccc3)c12 [GSK2592465A]
HeLa cells; [1]
  cell count rep 1: 4912
  cell count rep 2: 4633
  cell count rep 3: 5392
HeLa cells; Yes/No call from z-scoreHeLa
  cell death: No
HeLa cells; [11]
  z-scoreHeLa mean: 0.25
  z-scoreHeLa rep 1: 0.40
  z-scoreHeLa rep 2: 0.26
  z-scoreHeLa rep 3: 0.10
Intracellular MRSA; [6]
  %GFP+ rep 1: 23.8%
  %GFP+ rep 2: 25.0%
  %GFP+ rep 3: 22.8%
Intracellular MRSA; Yes/No call from z-scoreMRSA+
  effect: No
Intracellular MRSA; [12]
  hit: No
Intracellular MRSA; [13]
  z-scoreMRSA+ mean: 0.14
  z-scoreMRSA+ rep 1: -0.34
  z-scoreMRSA+ rep 2: 0.58
  z-scoreMRSA+ rep 3: 0.18

## Cn1cc(-c2cnc(N)c3c(-c4ccc5c(c4)CCN5C(=O)Cc4ccccc4)csc23)cn1 [GSK2593074A]
HeLa cells; [5]
  cell count rep 1: 857
  cell count rep 2: 369
  cell count rep 3: 1620
HeLa cells; Yes/No call from z-scoreHeLa
  cell death: Yes
HeLa cells; [11]
  z-scoreHeLa mean: -3.02
  z-scoreHeLa rep 1: -3.54
  z-scoreHeLa rep 2: -2.95
  z-scoreHeLa rep 3: -2.56
Intracellular MRSA; [10]
  %GFP+ rep 1: 24.8%
  %GFP+ rep 2: 21.4%
  %GFP+ rep 3: 19.2%
Intracellular MRSA; Yes/No call from z-scoreMRSA+
  effect: No
Intracellular MRSA; [12]
  hit: No
Intracellular MRSA; [13]
  z-scoreMRSA+ mean: 2.45
  z-scoreMRSA+ rep 1: 3.72
  z-scoreMRSA+ rep 2: 2.64
  z-scoreMRSA+ rep 3: 0.98

## Cc1ccccc1CC(=O)N1CCc2cc(-c3cn(C)c4ncnc(N)c34)ccc21 [GSK2603346A]
HeLa cells; [1]
  cell count rep 1: 19984
  cell count rep 2: 27840
  cell count rep 3: 38532
HeLa cells; [2]
  z-scoreHeLa mean: -0.54
  z-scoreHeLa rep 1: -0.02
  z-scoreHeLa rep 2: -1.30
  z-scoreHeLa rep 3: -0.32
HeLa cells; [4]
  cell death: No
Intracellular MRSA; [6]
  %GFP+ rep 1: 20.6%
  %GFP+ rep 2: 20.8%
  %GFP+ rep 3: 20.5%
Intracellular MRSA; [7]
  z-scoreMRSA+ mean: 0.59
  z-scoreMRSA+ rep 1: 0.87
  z-scoreMRSA+ rep 2: 0.68
  z-scoreMRSA+ rep 3: 0.22
Intracellular MRSA; [8]
  hit: No
Intracellular MRSA; [9]
  effect: No

## Cn1cc(-c2ccc3c(c2)CCN3C(=O)Cc2cccc(F)c2)c2c(N)ncnc21 [GSK2603358A]
HeLa cells; [3]
  cell death: No
HeLa cells; PKIS compound screen
  z-scoreHeLa mean: 0.76
  z-scoreHeLa rep 1: -0.12
  z-scoreHeLa rep 2: 0.60
  z-scoreHeLa rep 3: 1.79
HeLa cells; [5]
  cell count rep 1: 5847
  cell count rep 2: 6919
  cell count rep 3: 8427
Intracellular MRSA; [3]
  effect: No
Intracellular MRSA; [8]
  hit: No
Intracellular MRSA; PKIS compound screen
  z-scoreMRSA+ mean: 0.42
  z-scoreMRSA+ rep 1: -0.03
  z-scoreMRSA+ rep 2: 0.66
  z-scoreMRSA+ rep 3: 0.62
Intracellular MRSA; [10]
  %GFP+ rep 1: 26.9%
  %GFP+ rep 2: 29.5%
  %GFP+ rep 3: 30.6%
